Converted amounts (≈) assume the structure as drawn.
What was measured:
Candida albicans [1] = assay: CLSI broth microdilution MIC (Example 4); assay type: cell-based
Protocol: (§1) Antifungal minimum inhibitory concentration (MIC) testing was undertaken as recommended by the CLSI. Briefly, antifungal susceptibility tests were performed for amphotericin B, robenidine (NCL812) and robenidine (NCL) analogs (NCL004, NCL020, NCL023, NCL024, NCL062, NCL094, NCL097, NCL110, NCL113, NCL114, NCL115, NCL135, NCL139, NCL180, NCL181, NCL195, NCL219, NCL220, NCL228, NCL247, NCL250, NCL259, NCL260, NCL263, NCL265, NCL269, NCL274) by standard broth microdilution method (CLSI) in RPMI 1640. Various concentrations (ranging from high to low) of the selected compounds were prepared in RPMI 1640 medium by double dilution in 96-well microtitre plates. Each well contained an inoculum of approximately 2×10^3 cells/mL. The wells without addition of drugs served as negative (no inoculum) and positive (inoculum only) growth controls. Microtitre plates were incubated at 35° C. for 24-48 hours. […] Antifungal MICs were determined for each isolate in duplicate; if the values obtained were different, the MIC test was repeated a third time.

Cryptococcus neoformans [2] = assay: CLSI broth microdilution MIC (Example 4); assay type: cell-based
Protocol: as §1

Candida albicans [3] = assay: CLSI broth microdilution MIC (Example 5); assay type: cell-based; settings: for activity against one or more isolates of Cryptococcus neoformans and Candida albicans: summary in words
Protocol: as §1, with “robenidine” for “robenidine (NCL)”, “(NCL23, NCL24, NCL97,” for “(NCL004, NCL020, NCL023, NCL024, NCL062, NCL094, NCL097, NCL110,”, “NCL113,” for “NCL113, NCL114,”, “NCL115,” for “NCL115, NCL135, NCL139, NCL180, NCL181,”, “NCL220,” for “NCL220, NCL228, NCL247, NCL250,”, “NCL265)” for “NCL260, NCL263, NCL265, NCL269, NCL274)”

Cryptococcus neoformans [4] = assay: CLSI broth microdilution MIC (Example 5); assay type: cell-based
Protocol: as §1, with “robenidine” for “robenidine (NCL)”, “(NCL23, NCL24, NCL97,” for “(NCL004, NCL020, NCL023, NCL024, NCL062, NCL094, NCL097, NCL110,”, “NCL113,” for “NCL113, NCL114,”, “NCL115,” for “NCL115, NCL135, NCL139, NCL180, NCL181,”, “NCL220,” for “NCL220, NCL228, NCL247, NCL250,”, “NCL265)” for “NCL260, NCL263, NCL265, NCL269, NCL274)”

Candida albicans [5] = assay: CLSI broth microdilution MIC (Example 6); assay type: cell-based
Protocol: (§2) Antifungal minimum inhibitory concentration (MIC) testing was undertaken as recommended by the CLSI (1). Briefly, antifungal susceptibility tests were performed for amphotericin B, robenidine (NCL812) and 10 robenidine analogs (NCL023, NCL024, NCL097, NCL113, NCL115, NCL195, NCL219, NCL220, NCL259, NCL265) by standard broth microdilution method (CLSI) in RPMI 1640. Various concentrations (ranging from high to low) of the selected compounds were prepared in RPMI 1640 medium by double dilution in 96-well microtitre plates. Each well contained an inoculum of approximately 2×10^3 cells/mL. The wells without addition of drugs served as negative (no inoculum) and positive (inoculum only) growth controls. Microtitre plates were incubated at 35° C. for 24-48 hours. […] Antifungal MICs were determined for each isolate in duplicate; if the values obtained were different, the MIC test was repeated a third time.

Cryptococcus neoformans [6] = assay: CLSI broth microdilution MIC (Example 6); assay type: cell-based
Protocol: as §2

C. gattii = assay: CLSI broth microdilution MIC (Example 6); assay type: cell-based, Cryptococcus gattii
Protocol: as §2

[7] = tested on: Candida albicans ATCC14053; assay: Broth micro-dilution screen at 16 μg/mL and MIC (Example 9); assay type: cell-based; settings: for Screen at 16 μg/mL: single concentration 16 μg/mL, Growth or No growth of C. albicans ATCC14053
Protocol: The antifungal activity of 201 NCL analogs against Candida albicans ATCC14053 in vitro was investigated. A broth micro-dilution method was used, according to CLSI guidelines as described. NCL analogs were dissolved in DMSO and originally screened at a single concentration of 16 μg/mL.

[8] = clinical isolate C. albicans 12-93301752 Azole Resistant
[9] = clinical isolate C. albicans 14-90045999 Azole Resistant
[10] = clinical isolate C. albicans 15-45171061
[11] = clinical isolate C. albicans 15-91329871
[12] = clinical isolate C. albicans 16-24136919 Azole Resistant
[13] = clinical isolate C. albicans 16-46177400
[14] = clinical isolate C. albicans 16-90050810
[15] = clinical isolate C. albicans 16-90054237
[16] = clinical isolate C. albicans 18-144-00196
[17] = clinical isolate C. albicans 18-148-08188 Azole Resistant
[18] = human clinical isolate C. neoformans serotype A/D hybrid
[19] = human clinical isolate C. neoformans var grubii 16-90050434
[20] = human clinical isolate C. neoformans var grubii 17-90028233
[21] = human clinical isolate C. neoformans var grubii 17-93996464
[22] = human clinical isolate C. neoformans var grubii 17-93996964
[23] = human clinical isolate C. gatti 17-90232099
[24] = human clinical isolate C. gattii 16-90050373
[25] = human clinical isolate C. gattii 17-90028211
[26] = human clinical isolate C. gattii 17-90028217
[27] = human clinical isolate C. gattii 17-90028242

COc1ccc(C=NNC(=N)NN=Cc2ccc(OC)c(OC)c2)cc1OC.Cl [NCL115]
MIC at 24-48 hours (Candida albicans [1]; Candida albicans ATCC 90028): >32 µg/mL
MIC at 24-48 hours (Candida albicans [1]; Candida albicans SA3): >32 µg/mL
MIC at 24-48 hours (Cryptococcus neoformans [2]; Cryptococcus neoformans SA1): 8 µg/mL
MIC at 24-48 hours (Cryptococcus neoformans [2]; Cryptococcus neoformans SA2): 8 µg/mL
MIC (Candida albicans [3]; C. albicans SA3): >32 µg/mL
MIC (Candida albicans [3]; Candida albicans ATCC 90028): >32 µg/mL
MIC (Candida albicans [3]; [8]): >16 µg/mL
MIC (Candida albicans [3]; [9]): 8 µg/mL
MIC (Candida albicans [3]; [10]): >16 µg/mL
MIC (Candida albicans [3]; [11]): >16 µg/mL
MIC (Candida albicans [3]; [12]): >16 µg/mL
MIC (Candida albicans [3]; [13]): >16 µg/mL
MIC (Candida albicans [3]; [14]): >16 µg/mL
MIC (Candida albicans [3]; [15]): >16 µg/mL
MIC (Candida albicans [3]; [16]): >16 µg/mL
MIC (Candida albicans [3]; [17]): >16 µg/mL
activity against one or more isolates of Cryptococcus neoformans and Candida albicans (Candida albicans [3]): highly active
MIC (Cryptococcus neoformans [4]; Cryptococcus neoformans SA1): 8 µg/mL
MIC (Cryptococcus neoformans [4]; Cryptococcus neoformans SA2): 8 µg/mL
MIC (Candida albicans [5]; C. albicans SA3): >32 µg/mL
MIC (Candida albicans [5]; Candida albicans ATCC 90028): >32 µg/mL
MIC (Cryptococcus neoformans [6]; Cryptococcus neoformans SA1): 8 µg/mL
MIC (Cryptococcus neoformans [6]; Cryptococcus neoformans SA2): 8 µg/mL
MIC (Cryptococcus neoformans [6]; [18]): >32 µg/mL
MIC (Cryptococcus neoformans [6]; [19]): >32 µg/mL
MIC (Cryptococcus neoformans [6]; [20]): >32 µg/mL
MIC (Cryptococcus neoformans [6]; [21]): >32 µg/mL
MIC (Cryptococcus neoformans [6]; [22]): >32 µg/mL
MIC (C. gattii; [23]): >32 µg/mL
MIC (C. gattii; [24]): >32 µg/mL
MIC (C. gattii; [25]): >32 µg/mL
MIC (C. gattii; [26]): >32 µg/mL
MIC (C. gattii; [27]): >32 µg/mL
Screen at 16 μg/mL [7]: Growth

Nc1nc(NN=Cc2ccc(F)cc2)cc(NN=Cc2ccc(F)cc2)n1 [NCL220]
MIC at 24-48 hours (Candida albicans [1]; Candida albicans ATCC 90028): 32 µg/mL (≈ 87.1 µM)
MIC at 24-48 hours (Candida albicans [1]; Candida albicans SA3): 32 µg/mL (≈ 87.1 µM)
antifungal activity against the two isolates of Candida albicans (Candida albicans [1]; summary in words): high antifungal activity
MIC at 24-48 hours (Cryptococcus neoformans [2]; Cryptococcus neoformans SA1): 2 µg/mL (≈ 5.44 µM)
MIC at 24-48 hours (Cryptococcus neoformans [2]; Cryptococcus neoformans SA2): 4 µg/mL (≈ 10.9 µM)
MIC (Candida albicans [3]; C. albicans SA3): 32 µg/mL (≈ 87.1 µM)
MIC (Candida albicans [3]; Candida albicans ATCC 90028): 32 µg/mL (≈ 87.1 µM)
MIC (Candida albicans [3]; [8]): 4 µg/mL (≈ 10.9 µM)
MIC (Candida albicans [3]; [9]): >16 µg/mL
MIC (Candida albicans [3]; [10]): >16 µg/mL
MIC (Candida albicans [3]; [11]): 8 µg/mL (≈ 21.8 µM)
MIC (Candida albicans [3]; [12]): 4 µg/mL (≈ 10.9 µM)
MIC (Candida albicans [3]; [13]): >16 µg/mL
MIC (Candida albicans [3]; [14]): >16 µg/mL
MIC (Candida albicans [3]; [15]): 8 µg/mL (≈ 21.8 µM)
MIC (Candida albicans [3]; [16]): 8 µg/mL (≈ 21.8 µM)
MIC (Candida albicans [3]; [17]): 4 µg/mL (≈ 10.9 µM)
activity against one or more isolates of Cryptococcus neoformans and Candida albicans (Candida albicans [3]): highly active
MIC (Cryptococcus neoformans [4]; Cryptococcus neoformans SA1): 2 µg/mL (≈ 5.44 µM)
MIC (Cryptococcus neoformans [4]; Cryptococcus neoformans SA2): 4 µg/mL (≈ 10.9 µM)
MIC (Candida albicans [5]; C. albicans SA3): 32 µg/mL (≈ 87.1 µM)
MIC (Candida albicans [5]; Candida albicans ATCC 90028): 32 µg/mL (≈ 87.1 µM)
MIC (Cryptococcus neoformans [6]; Cryptococcus neoformans SA1): 2 µg/mL (≈ 5.44 µM)
MIC (Cryptococcus neoformans [6]; Cryptococcus neoformans SA2): 4 µg/mL (≈ 10.9 µM)
MIC (Cryptococcus neoformans [6]; [18]): 32 µg/mL (≈ 87.1 µM)
MIC (Cryptococcus neoformans [6]; [19]): 32 µg/mL (≈ 87.1 µM)
MIC (Cryptococcus neoformans [6]; [20]): >32 µg/mL
MIC (Cryptococcus neoformans [6]; [21]): 32 µg/mL (≈ 87.1 µM)
MIC (Cryptococcus neoformans [6]; [22]): 32 µg/mL (≈ 87.1 µM)
MIC (C. gattii; [23]): 4 µg/mL (≈ 10.9 µM)
MIC (C. gattii; [24]): >32 µg/mL
MIC (C. gattii; [25]): 32 µg/mL (≈ 87.1 µM)
MIC (C. gattii; [26]): 4 µg/mL (≈ 10.9 µM)
MIC (C. gattii; [27]): 32 µg/mL (≈ 87.1 µM)
MIC ([7]; C. albicans ATCC14053, test range 0.25-64 μg/mL, duplicate): >64 µg/mL
Screen at 16 μg/mL [7]: Growth

— US20230310388A1, “Methods and Compositions for Treating Fungal Infections” (Neoculi Pty Ltd, priority 2020, published 2023)
